Here are results for 30 molecules from patent publication US10111874B2, “Combination therapies for treatment of cancer” (Araxes Pharma LLC, priority 2014, dated 2018).

T1 sequence (P01116 1-169 isoform P01116-2 G12C): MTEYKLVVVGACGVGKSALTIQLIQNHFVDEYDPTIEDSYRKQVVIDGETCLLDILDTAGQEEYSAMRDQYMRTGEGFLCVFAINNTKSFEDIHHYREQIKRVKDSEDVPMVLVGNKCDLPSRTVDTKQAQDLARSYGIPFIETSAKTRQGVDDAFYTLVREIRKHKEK

The first test concerns the target T1, KRAS G12C 1-169, his-tagged protein, GDP-loaded (Homo sapiens, UniProt P01116, G12C).
T1 construct: KRAS G12C 1-169, his-tagged protein, GDP-loaded
As to the kind of experiment: Biochemical assay: covalent binding to KRAS G12C analyzed by mass spectrometry. Also: test concentration or dose not given here. Particulars: determined at 2 hrs.
Take `C=CC(=O)N1CC(N2CCN(C(=O)CNc3cc(C(C)C)c(Cl)cc3O)CC2)C1` [II-50, 1-(3-(4-(2-(4-Chloro-2-hydroxy-5-isopropylphenylamino)acetyl)piperazin-1-yl)azetidin-1-yl)prop-2-en-1-one]: the Binding % result is on record as “++ (++indicates binding activity greater than 20%)”.
Still for that read-out and setting: the value for `C=CC(=O)N1CC(N2CCN(C(=O)CNc3cc(C4CC4)c(Cl)cc3O)CC2C(N)=O)C1` (stereo not drawn) [II-51, 1-(1-acryloylazetidin-3-yl)-4-(2-(4-chloro-5-cyclopropyl-2-hydroxyphenylamino)acetyl)piperazine-2-carboxamide] was “++ (++indicates binding activity greater than 20%)”; that for `C=CC(=O)N1CC(N2CCN(C(=O)CNc3cc(Cl)c(CC)cc3O)CC2)C1` [II-52, 1-(3-(4-(2-(5-chloro-4-ethyl-2-hydroxyphenylamino)acetyl)piperazin-1-yl)azetidin-1-yl)prop-2-en-1-one] was “+ (+indicates binding activity from 5% to 20%)”.
With `C=CC(=O)N1CC(N2CCN(C(=O)CNc3cc(C4CCC4)c(Cl)cc3O)CC2)C1` [II-53, 1-(3-(4-(2-(4-chloro-5-cyclobutyl-2-hydroxyphenylamino)acetyl)piperazin-1-yl)azetidin-1-yl)prop-2-en-1-one], the Binding % entry is given as “++ (++indicates binding activity greater than 20%)”.
Same read-out and setting: as for `C=CC(=O)N1CC(N2CCN(C(=O)CNc3cc(C4CC4)c(Cl)cc3O)CC2CO)C1` (stereo not drawn) [II-54, 1-(3-(4-(2-(4-Chloro-5-cyclopropyl-2-hydroxyphenylamino)acetyl)-2-(hydroxymethyl)piperazin-1-yl)azetidin-1-yl)prop-2-en-1-one], the entry is “++ (++indicates binding activity greater than 20%)”.
Turning to `C=CC(=O)N1CC(N2CCN(C(=O)CNc3cc(CC)c(Cl)cc3O)CC2)C1` [II-55, 1-(3-(4-(2-(4-chloro-5-ethyl-2-hydroxyphenylamino)acetyl)piperazin-1-yl)azetidin-1-yl)prop-2-en-1-one], the Binding % entry was “++ (++indicates binding activity greater than 20%)”.
Same read-out and setting: the value for `C=CC(=O)N1CC(N2CCN(C(=O)CNc3cc(C4CC4(F)F)c(Cl)cc3O)CC2)C1` (stereo not drawn) [II-56, 1-(3-(4-((4-chloro-5-(2,2-difluorocyclopropyl)-2-hydroxyphenyl)glycyl)piperazin-1-yl)azetidin-1-yl)prop-2-en-1-one] was “++ (++indicates binding activity greater than 20%)”; that for `C=CC(=O)N1CC(N2CCN(C(=O)CNc3cc(CC(F)(F)F)c(Cl)cc3O)CC2)C1` [II-57, 1-(3-(4-(2-((4-Chloro-2-hydroxy-5-(2,2,2-trifluoroethyl)phenyl)amino)acetyl)piperazin-1-yl)azetidin-1-yl)prop-2-en-1-one] was “++ (++indicates binding activity greater than 20%)”.
Take `C=CC(=O)N1CC(N2CCN(C(=O)CCc3cc(C4CC4)c(Cl)cc3O)CC2)C1` [II-58, 1-(3-(4-(3-(4-Chloro-5-cyclopropyl-2-hydroxyphenyl)propanoyl)piperazin-1-yl)azetidin-1-yl)prop-2-en-1-one]: the Binding % entry is “+ (+indicates binding activity from 5% to 20%)”.
Still for that read-out and setting: as for `C=CC(=O)N1CC(N2CCN(C(=O)C(C)Nc3cc(C4CCC4)c(Cl)cc3O)CC2)C1` (stereo not drawn) [II-59, 1-(3-(4-(2-(4-chloro-5-cyclobutyl-2-hydroxyphenylamino)propanoyl)piperazin-1-yl)azetidin-1-yl)prop-2-en-1-one], the entry is “++ (++indicates binding activity greater than 20%)”; as for `C=CC(=O)N1CC(N2CCN(C(=O)CNc3cc(C4CC4)c(Cl)cc3O)CC2C)C1` (stereo not drawn) [II-60, 1-(3-(4-(2-((4-Chloro-5-cyclopropyl-2-hydroxyphenyl)amino)acetyl)-2-methylpiperazin-1-yl)azetidin-1-yl)prop-2-en-1-one], “++ (++indicates binding activity greater than 20%)”; as for `C=CC(=O)N1CC(N2CCN(C(=O)Cc3c[nH]c4cc(Cl)c(Cl)cc34)CC2)C1` [II-61, 1-(3-(4-(2-(5,6-Dichloro-1H-indol-3-yl)acetyl)piperazin-1-yl)azetidin-1-yl)prop-2-en-1-one], “+ (+indicates binding activity from 5% to 20%)”.

The same test, now with this note: determined at 24 hrs.
For the molecule `C=CC(=O)N1CC(N2CCN(C(=O)CNc3cc(C)c(Cl)cc3O)CC2)C1` [II-32, 1-(3-(4-(2-(4-chloro-2-hydroxy-5-methylphenylamino)-acetyl)piperazin-1-yl)azetidin-1-yl)prop-2-en-1-one], the Binding % entry is recorded as “++++ (++++indicates binding activity greater than 50%)”.
In the case of `C=CC(=O)N1CC(N2CCN(C(=O)CNc3cc(O)cc(Cl)c3)CC2)C1` [II-33, 1-(3-(4-(2-(3-chloro-5-hydroxyphenylamino)-acetyl)piperazin-1-yl)azetidin-1-yl)prop-2-en-1-one], the Binding % result is “+ (+indicates binding activity from 5% to 15%)”.
With `C=CC(=O)N1CC(N2CCN(C(=O)CNc3cc(S(C)(=O)=O)ccc3O)CC2)C1` [II-34, 1-(3-(4-(2-(2-hydroxy-5-(methylsulfonyl)-phenylamino)acetyl)-piperazin-1-yl)azetidin-1-yl)prop-2-en-1-one], the Binding % entry is reported as “+ (+indicates binding activity from 5% to 15%)”.
Regarding `C=CC(=O)N1CC(N2CCN(C(=O)CNc3cc(C4CC4)c(Cl)cc3O)CC2)C1` [II-35, 1-(3-(4-(2-(4-chloro-5-cyclopropyl-2-hydroxyphenyl-amino)acetyl)piperazin-1-yl)azetidin-1-yl)prop-2-en-1-one], the Binding % result is listed as “++++ (++++indicates binding activity greater than 50%)”.
Still for that read-out and setting: as for `C=CC(=O)NC1CN(C2CN(C(=O)CNc3cc(Br)c(Cl)cc3O)C2)C1` [II-36, N-(1′-(2-(5-bromo-4-chloro-2-hydroxyphenylamino)-acetyl)-1,3′-biazetidin-3-yl)acrylamide], the entry is “++++ (++++indicates binding activity greater than 50%)”; as for `C=CC(=O)N1CC(N2CCN(C(=O)CNc3cc(C(F)(F)F)c(Cl)cc3OC)CC2)C1` [II-37, 1-(3-(4-(2-(4-chloro-2-methoxy-5-(trifluoromethyl)-phenylamino)acetyl)-piperazin-1-yl)azetidin-1-yl)prop-2-en-1-one], “++ (++indicates binding activity greater than 15% and up to 25%)”; as for `C=CC(=O)N1CC(N2CCN(C(=O)CNc3ncc(Cl)s3)CC2)C1` [II-38, 1-(3-(4-(2-(5-chlorothiazol-2-ylamino)acetyl)piperazin-1-yl)azetidin-1-yl)prop-2-en-1-one], “+ (+indicates binding activity from 5% to 15%)”.
Turning to `C=CC(=O)N1CCN(C2CN(C(=O)CNc3cc(Cl)c(Cl)cc3O)C2)CC1` [II-39, 1-(4-(1-(2-(4,5-dichloro-2-hydroxyphenyl-amino)acetyl)azetidin-3-yl)piperazin-1-yl)prop-2-en-1-one], the Binding % result is “+++ (+++indicates binding activity greater than 25% and up to 50%)”.
As to `C=CS(=O)(=O)N1CCN(C2CN(C(=O)CNc3cc(Cl)c(Cl)cc3O)C2)CC1` [II-40, 2-(4,5-dichloro-2-hydroxyphenylamino)-1-(3-(4-(vinylsulfonyl)-piperazin-1-yl)azetidin-1-yl)ethanone], the Binding % entry is listed as “++++ (++++indicates binding activity greater than 50%)”.
On the same count and under the same terms, as for `C=CS(=O)(=O)N1CCC(N2CCN(C(=O)CNc3cc(Cl)c(Cl)cc3O)CC2)C1` (stereo not drawn) [II-41, 2-(4,5-dichloro-2-hydroxyphenylamino)-1-(4-(1-(vinylsulfonyl)-pyrrolidin-3-yl)piperazin-1-yl)ethanone], the entry is “++++ (++++indicates binding activity greater than 50%)”; as for `C=CC(=O)N1CC(N2CCN(C(=O)CN3CC(=O)Nc4ccccc43)CC2)C1` [II-42, 4-(2-(4-(1-acryloylazetidin-3-yl)piperazin-1-yl)-2-oxoethyl)-3,4-dihydroquinoxalin-2(1H)-one], “+ (+indicates binding activity from 5% to 15%)”.
On the same count and under the same terms, the value for `C=CC(=O)N1CC(N2CCN(C(=O)CNc3cc4ccccc4cc3O)CC2)C1` [II-43, 1-(3-(4-(2-(3-hydroxynaphthalen-2-ylamino)acetyl)-piperazin-1-yl)azetidin-1-yl)prop-2-en-1-one] was “++++ (++++indicates binding activity greater than 50%)”.
In the case of `C=CC(=O)N1CC(N2CCN(C(=O)CNc3cc(Cl)c(Cl)c(C(N)=O)c3)CC2)C1` [II-44, 5-(2-(4-(1-acryloylazetidin-3-yl)piperazin-1-yl)-2-oxoethylamino)-2,3-dichlorobenzamide], the Binding % entry is given as “+ (+indicates binding activity from 5% to 15%)”.
On the same count and under the same terms, as for `C=CC(=O)NC1CN(C2CN(C(=O)CNc3cc(C4CC4)c(Cl)cc3O)C2)C1` [II-45, N-(1′-(2-(4-chloro-5-cyclopropyl-2-hydroxyphenyl-amino)acetyl)-1,3′-biazetidin-3-yl)acrylamide], the entry is “++++ (++++indicates binding activity greater than 50%)”.
Still for that read-out and setting: as for `C=CC(=O)N1CC(N2CCN(C(=O)CNc3cc(C=O)c(Cl)cc3OC)CC2)C1` [II-46, 5-(2-(4-(1-acryloylazetidin-3-yl)piperazin-1-yl)-2-oxoethylamino)-2-chloro-4-methoxybenzaldehyde], the entry is “+ (+indicates binding activity from 5% to 15%)”.
The same measure, in the same setting: the value for `C=CC(=O)N1CC(N2CCN(C(=O)c3cc(C4CC4)c(Cl)cc3OC)CC2)C1` [II-47, 1-(3-(4-(4-chloro-5-cyclopropyl-2-methoxybenzoyl)-piperazin-1-yl)azetidin-1-yl)prop-2-en-1-one] was “+ (+indicates binding activity from 5% to 15%)”; that for `C=CC(=O)N1CC(N2CCN(C(=O)c3cc(-c4cc(Cl)ccc4Cl)c(Cl)cc3O)CC2)C1` [II-48, 1-(3-(4-(2′,5′,6-trichloro-4-hydroxybiphenyl-carbonyl)piperazin-1-yl)azetidin-1-yl)prop-2-en-1-one] was “++ (++indicates binding activity greater than 15% and up to 25%)”; that for `C=CC(=O)N1CC(N2CCN(C(=O)C(CC)Nc3cc(Cl)c(Cl)cc3O)CC2)C1` (stereo not drawn) [II-49, 1-(4-(1-acryloylazetidin-3-yl)piperazin-1-yl)-2-(4,5-dichloro-2-hydroxyphenyl-amino)butan-1-one] was “++++ (++++indicates binding activity greater than 50%)”.
